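96-well plates; 48 h exposure; 5 concentrations. Endpoints by linear interpolation between flanking doses. Not reached: highest tested concentration assigned. GI50: concentration for 50% inhibition of growth. TGI is the concentration that stops growth completely.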
Key:
Test in all cases: DTP human tumour cell line panel, 48 h
SW-620 colon = tested on: SW-620 colon
A549 NSCLC = tested on: A549 NSCLC
CAKI-1 renal = tested on: CAKI-1 renal
SN12C renal = tested on: SN12C renal
NCI-H460 lung = tested on: NCI-H460 lung
UO-31 renal = tested on: UO-31 renal
HCT-15 colon = tested on: HCT-15 colon
T-47D breast = tested on: T-47D breast
HL-60(TB) leukemia = tested on: HL-60(TB) leukemia
UACC-257 melanoma = tested on: UACC-257 melanoma

Compound | GI50 (SW-620 colon) | TGI (SW-620 colon) | GI50 (A549 NSCLC) | TGI (A549 NSCLC) | GI50 (CAKI-1 renal) | TGI (CAKI-1 renal) | GI50 (SN12C renal) | TGI (SN12C renal) | GI50 (NCI-H460 lung) | TGI (NCI-H460 lung) | GI50 (UO-31 renal) | TGI (UO-31 renal) | GI50 (HCT-15 colon) | TGI (HCT-15 colon) | GI50 (T-47D breast) | TGI (T-47D breast) | GI50 (HL-60(TB) leukemia) | TGI (HL-60(TB) leukemia) | GI50 (UACC-257 melanoma) | TGI (UACC-257 melanoma)
Cn1c(=O)c(Oc2cccc(F)c2)cc2cnc(NC3CCOCC3)nc21 | > 25 µM | > 25 µM | > 25 µM | > 25 µM | > 22.4 µM | > 25 µM | > 25 µM | > 25 µM | > 25 µM | > 25 µM | > 8.3 µM | > 13 µM | > 25 µM | > 25 µM | > 25 µM | > 25 µM | > 25 µM | > 25 µM | > 25 µM | > 25 µM
CC1=C(C(=O)Nc2ccc3[nH]ncc3c2)C(c2ccc(F)cc2)NC(=O)N1 (stereo not given) | > 25 µM | > 25 µM | > 25 µM | > 25 µM | > 25 µM | > 25 µM | > 25 µM | > 25 µM | > 25 µM | > 25 µM | > 17.5 µM | > 25 µM | > 25 µM | > 25 µM | > 25 µM | > 25 µM | > 25 µM | > 25 µM | > 25 µM | > 25 µM
COc1cc(C(=O)/C=C/c2c(-c3ccc(F)cc3)nc3sc(C)cn23)cc(OC)c1OC | 5.34 µM | > 100 µM | 9.34 µM | > 100 µM | 1.78 µM | 53.1 µM | 9.01 µM | > 100 µM | 3.87 µM | > 100 µM | 2.95 µM | > 100 µM | 3.75 µM | > 100 µM | 2.93 µM | > 100 µM | 2.87 µM | > 100 µM | 4.75 µM | > 100 µM
O=c1[nH]cnc2c1nnn2C1OC(CO)C(O)C1O (stereo not given) | 1.69 µM | > 100 µM | 29.1 µM | > 100 µM | 0.735 µM | > 45.1 µM | 6.57 µM | > 100 µM | 1.11 µM | > 100 µM | 2.75 µM | > 100 µM | 1.21 µM | > 100 µM | 0.736 µM | > 100 µM | 0.617 µM | > 43.9 µM | 12.3 µM | > 100 µM
Cc1ccccc1S(=O)(=O)N1[C@H](c2ccc(Cl)cc2)C(C(=O)N[C@@H](Cc2ccccc2)C(N)=O)=C[C@@H]1C(C)(C)C | 7.76 µM | 19.8 µM | 3.43 µM | 13.1 µM | 5.68 µM | 16.6 µM | 6.08 µM | 13.3 µM | 4.7 µM | 14.2 µM | 4.23 µM | 10.7 µM | 2.38 µM | 9.5 µM | 5 µM | 20.2 µM | 9.6 µM | 31.2 µM | 8.31 µM | 17.2 µM
N#Cc1cccc(C(=O)c2cnn(-c3ccc(F)cc3)c2N)c1 | > 25 µM | > 25 µM | > 25 µM | > 25 µM | > 25 µM | > 25 µM | > 25 µM | > 25 µM | > 25 µM | > 25 µM | > 25 µM | > 25 µM | > 25 µM | > 25 µM | > 25 µM | > 25 µM | > 25 µM | > 25 µM | > 25 µM | > 25 µM

Reference: PubChem BioAssay (NCI)
